Assay results taken from US7511144B2, “Reverse hydroxamic acid derivatives” (Kaken Pharmaceutical Co., Ltd., priority 2001, dated 2009).
Where two headings read alike, the source gives them in different places.

Key:
[1] = target: T1, Human MMP13 (Homo sapiens, UniProt P45452); experiment: MMP13 inhibition experiment; type: biochemical; conditions: concentration required for 50% inhibition of enzyme activity; read-out: IC50 value MMP-13
T1 construct: purchased Chemicon CC068
Experimental: Human MMP13 (Chemicon #CC068) in amount of 90 μL (200 ng) was activated by mixing with 10 μL of 10 mM APMA, followed by reaction for 1 hour at 37° C. This enzyme solution in amount of 0.6 μL was diluted to 90 μL with the assay buffer A, which was added to 90 μL of 20 μM fluorescent substrate (Dnp-Pro-Cha-Gly-Cys(Me)-His-Ala-Lys(Nma)-NH2) prepared in the assay buffer B, followed by reaction for 4 hours at 37° C.

[2] = target: T2, Human MMP17 (Homo sapiens, UniProt Q9ULZ9); experiment: MMP17 inhibition test; type: biochemical; conditions: concentration required for 50% inhibition of enzyme activity; read-out: IC50 value MMP-17
T2 construct: purchased Calbiochem 475940
T2 sequence (Q9ULZ9 126-300 limits assumed): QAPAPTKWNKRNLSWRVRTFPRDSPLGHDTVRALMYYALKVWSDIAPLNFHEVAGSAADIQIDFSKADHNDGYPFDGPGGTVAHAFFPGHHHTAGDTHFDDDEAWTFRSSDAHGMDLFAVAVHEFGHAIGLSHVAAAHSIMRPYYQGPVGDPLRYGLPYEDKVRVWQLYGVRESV

[3] = target: T3, TACE (Homo sapiens, UniProt P78536); experiment: TACE inhibition experiment (in vitro); type: biochemical
T3 construct: made in house; host or cells: mammalian cells or insect cells
T3 sequence (P78536 215-824): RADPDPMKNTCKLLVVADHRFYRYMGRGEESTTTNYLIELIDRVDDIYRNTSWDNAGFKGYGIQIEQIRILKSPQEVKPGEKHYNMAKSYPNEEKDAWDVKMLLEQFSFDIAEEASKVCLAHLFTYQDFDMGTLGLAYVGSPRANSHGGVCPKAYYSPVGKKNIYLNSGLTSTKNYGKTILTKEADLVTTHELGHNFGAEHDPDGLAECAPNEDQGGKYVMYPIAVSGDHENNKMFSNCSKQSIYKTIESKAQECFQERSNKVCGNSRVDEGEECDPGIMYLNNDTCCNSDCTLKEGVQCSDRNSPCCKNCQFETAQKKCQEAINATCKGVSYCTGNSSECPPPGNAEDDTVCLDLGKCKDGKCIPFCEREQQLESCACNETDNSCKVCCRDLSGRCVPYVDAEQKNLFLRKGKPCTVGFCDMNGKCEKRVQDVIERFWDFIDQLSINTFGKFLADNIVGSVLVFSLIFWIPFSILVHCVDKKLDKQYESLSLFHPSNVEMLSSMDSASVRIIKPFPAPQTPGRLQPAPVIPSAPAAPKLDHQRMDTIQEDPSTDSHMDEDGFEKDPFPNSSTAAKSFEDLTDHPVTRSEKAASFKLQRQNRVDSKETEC
Experimental: TACE inhibition experiments were conducted using TACE obtained as above as an enzyme and by measuring TACE activity in the presence or absence of a test substance using Nma (N-metylanthranilic acid)-[sequence]Dnp(dinitrophenyl)-D-Arg-NH2 being a fluorescent synthetic substrate which contains the sequence of cleavage site of membrane-bound TNF by TACE, as a substrate.
More specifically, 14 units of an enzyme solution (1 unit is defined as the amount of enzyme which degrades 1 pmol of the substrate per minute at 25° C.) which was prepared in 90 μL of assay buffer A (50 mM Tris-HCl buffer (pH 7.5) containing 200 mM sodium chloride, 5 mM calcium chloride, 10 μM zinc sulfate, 0.004% sodium azide and 2 mg/mL bovine serum albumin) and 90 μL of 20 μM fluorescent synthetic substrate prepared in assay buffer B (50 mM Tris-HCl buffer (pH 7.5) containing 200 mM sodium chloride, 5 mM calcium chloride, 10 μM zinc sulfate, 0.004% sodium azide and 0.05% PLURONIC F-68) are mixed and reacted for 2 hours at 37° C.

[4] = test system: TNF-α production (release); experiment: Study for suppression of TNF-α production (release) in vivo; conditions: male Lewis rats, LPS 1 mL/kg i.v.; test compound 3 mg/kg subcutaneous 30 minutes later; plasma TNF-α 90 minutes after LPS (ELISA)
Experimental: Lipopolysaccharide (LPS) from E. coli (available from SIGMA) was dissolved in physiological saline to prepare a solution of LPS (1 mg/mL). […] The rats received the LPS solution (1 mL/kg) intravenously, and 30 minutes later, the prepared solution of the test compound was administered subcutaneously (5 mL/kg, containing 3 mg of test compound/kg). 90 minutes after administration of LPS, blood was collected from the tail vein and centrifuged for 10 minutes at 3000 rpm at 4° C. to obtain plasma. The plasma TNF-α concentration was determined by an ELISA kit specific for rat TNF-α.

[5] = target: T4, Human MMP3 (Homo sapiens, UniProt P08254); experiment: MMP3 inhibition experiment; type: biochemical; conditions: concentration required for 50% inhibition of enzyme activity; read-out: IC50 value MMP-3
T4 construct: purchased Calbiochem 444217
T4 sequence (P08254 100-272 limits assumed): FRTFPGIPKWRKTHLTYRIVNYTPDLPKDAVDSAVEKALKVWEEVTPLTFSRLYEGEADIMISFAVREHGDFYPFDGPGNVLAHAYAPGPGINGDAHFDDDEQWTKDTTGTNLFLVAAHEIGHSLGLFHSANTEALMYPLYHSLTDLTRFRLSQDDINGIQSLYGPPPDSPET
Outline: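 Fluorescence-quenched substrate NFF-3 (MOCAc/Dnp peptide, 20 μM as prepared) cleaved by 5 ng human MMP3 over 5 hours at 37° C, with inhibition measured from substrate fluorescence.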

[6] = target: T5, Human MMP9 (Homo sapiens, UniProt P14780); experiment: MMP9 inhibition experiment; type: biochemical; conditions: read-out: IC50 value MMP-9
T5 construct: purchased Calbiochem 444231
T5 sequence (P14780 107-707 limits assumed): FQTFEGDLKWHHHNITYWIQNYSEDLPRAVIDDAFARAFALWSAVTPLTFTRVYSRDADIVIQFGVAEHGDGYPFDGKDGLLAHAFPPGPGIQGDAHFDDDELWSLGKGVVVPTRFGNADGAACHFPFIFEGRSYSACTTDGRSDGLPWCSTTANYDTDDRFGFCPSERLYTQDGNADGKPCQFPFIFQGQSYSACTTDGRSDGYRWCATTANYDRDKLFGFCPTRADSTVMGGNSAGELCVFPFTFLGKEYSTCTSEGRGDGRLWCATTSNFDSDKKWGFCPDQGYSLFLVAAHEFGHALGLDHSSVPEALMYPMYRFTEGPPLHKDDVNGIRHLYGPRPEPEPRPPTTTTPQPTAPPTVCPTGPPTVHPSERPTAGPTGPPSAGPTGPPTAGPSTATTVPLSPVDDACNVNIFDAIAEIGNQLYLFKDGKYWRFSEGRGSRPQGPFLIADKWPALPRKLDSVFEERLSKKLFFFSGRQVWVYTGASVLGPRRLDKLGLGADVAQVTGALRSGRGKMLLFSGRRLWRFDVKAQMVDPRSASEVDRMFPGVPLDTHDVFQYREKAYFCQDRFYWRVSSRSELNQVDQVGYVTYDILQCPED
Experimental: (§1) The methods of inhibition experiments carried out for various MMPs are described below.
This enzyme solution in amount of 1 μL was diluted to 90 μL with the assay buffer A, which was added to 90 μL of 20 μM fluorescent substrate (Dnp-Pro-Cha-Gly-Cys(Me)-His-Ala-Lys(Nma)-NH2) prepared in the assay buffer B, followed by reaction for 4 hours at 37° C.

[7] = target: T6, Human MMP1 (Homo sapiens, UniProt P03956); experiment: MMP1 inhibition experiment; type: biochemical; conditions: read-out: IC50 value MMP-1
T6 construct: purchased Calbiochem 444208
T6 sequence (P03956 100-469): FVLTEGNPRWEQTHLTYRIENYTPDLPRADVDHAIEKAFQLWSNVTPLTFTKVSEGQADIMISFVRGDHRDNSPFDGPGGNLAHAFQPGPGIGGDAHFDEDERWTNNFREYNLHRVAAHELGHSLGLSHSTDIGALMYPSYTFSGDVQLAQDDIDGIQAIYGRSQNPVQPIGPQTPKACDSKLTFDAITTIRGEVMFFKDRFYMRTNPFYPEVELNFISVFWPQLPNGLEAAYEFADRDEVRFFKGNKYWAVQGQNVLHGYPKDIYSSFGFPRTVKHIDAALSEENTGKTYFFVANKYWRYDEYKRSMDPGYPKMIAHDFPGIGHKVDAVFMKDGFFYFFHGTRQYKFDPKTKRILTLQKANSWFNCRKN
Experimental: as §1
This enzyme solution in amount of 10 μL was diluted to 90 μL with the assay buffer A, which was added to 90 μL of 20 μM fluorescent substrate (Dnp-Pro-Cha(β-cyclohexylalanyl)-Gly-Cys(Me)-His-Ala-Lys(Nma)-NH2) prepared in the assay buffer B, followed by reaction for 5 hours at 37° C.

[8] = target: T7, Human MMP14 (Homo sapiens, UniProt P50281); experiment: MMP14 inhibition experiment; type: biochemical; conditions: concentration required for 50% inhibition of enzyme activity; read-out: IC50 value MMP-14
T7 construct: purchased Biogenesis or Calbiochem 5980-1461 or 475935
Outline: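 Fluorescence assay: substrate Dnp-Pro-Cha-Gly-Cys(Me)-His-Ala-Lys(Nma)-NH2 (20 μM before equal-volume mixing) incubated at 37° C for 5 hours with 4 ng human MMP14.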

[9] = target: T8, Human MMP8 (Homo sapiens, UniProt P22894); experiment: MMP8 inhibition experiment; type: biochemical; conditions: concentration required for 50% inhibition of enzyme activity; read-out: IC50 value MMP-8
T8 construct: purchased Calbiochem 444229
T8 sequence (P22894 101-467): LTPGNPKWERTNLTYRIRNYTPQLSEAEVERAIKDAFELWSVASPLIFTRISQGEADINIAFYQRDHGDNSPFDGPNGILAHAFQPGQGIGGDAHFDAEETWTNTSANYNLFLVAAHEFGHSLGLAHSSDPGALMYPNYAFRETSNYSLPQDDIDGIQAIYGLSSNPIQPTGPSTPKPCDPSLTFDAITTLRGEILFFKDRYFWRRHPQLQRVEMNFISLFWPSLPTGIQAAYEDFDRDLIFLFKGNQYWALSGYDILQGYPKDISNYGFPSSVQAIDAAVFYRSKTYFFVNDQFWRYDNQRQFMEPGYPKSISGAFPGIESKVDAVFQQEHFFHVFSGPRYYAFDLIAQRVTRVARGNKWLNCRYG
Outline: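 Human MMP8 activated with APMA for 1 h at 37° C, then incubated with fluorogenic peptide MOCAc-Pro-Leu-Gly-Leu-A2pr(Dnp)-Ala-Arg-NH2 (20 μM stock) for 5 hours at 37° C. Fluorescent substrate cleavage serves as read-out.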

[10] = target: T9, Human MMP2 (Homo sapiens, UniProt P08253); experiment: MMP2 inhibition experiment; type: biochemical; conditions: concentration required for 50% inhibition of enzyme activity; read-out: IC50 value MMP-2
T9 construct: purchased Calbiochem 444213
T9 sequence (P08253 110-660): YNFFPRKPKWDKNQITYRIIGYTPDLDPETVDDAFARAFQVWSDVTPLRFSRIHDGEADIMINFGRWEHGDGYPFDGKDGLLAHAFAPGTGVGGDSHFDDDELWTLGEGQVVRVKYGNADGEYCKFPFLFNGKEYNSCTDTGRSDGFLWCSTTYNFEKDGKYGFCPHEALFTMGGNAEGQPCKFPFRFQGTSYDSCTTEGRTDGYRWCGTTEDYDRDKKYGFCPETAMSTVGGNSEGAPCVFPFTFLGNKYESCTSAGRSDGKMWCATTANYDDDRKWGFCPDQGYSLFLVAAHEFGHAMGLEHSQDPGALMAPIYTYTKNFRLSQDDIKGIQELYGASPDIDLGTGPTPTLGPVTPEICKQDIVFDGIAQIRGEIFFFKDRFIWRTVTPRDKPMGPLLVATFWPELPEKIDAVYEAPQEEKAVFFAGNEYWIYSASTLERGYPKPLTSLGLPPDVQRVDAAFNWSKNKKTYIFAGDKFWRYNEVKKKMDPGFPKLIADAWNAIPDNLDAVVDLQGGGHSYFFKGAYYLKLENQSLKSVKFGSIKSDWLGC
Experimental: This enzyme solution in amount of 10 μL was diluted to 90 μL with the assay buffer A, which was added to 90 μL of 20 μM fluorescent substrate (MOCAc((7-methoxycoumarin-4-yl)acetyl)-Pro-Leu-Gly-Leu-A2pr(Dnp)-Ala-Arg-NH2, Peptide Institute, Inc., #3163-v) prepared in the assay buffer B, followed by reaction for 5 hours at 37° C.

Row | Compound | IC50 [1] [µM] | IC50 [2] [µM] | IC50 ([3]; concentration required for 50% inhibition of enzyme activity) [µM] | Suppression rate of TNF-α production (release) (%) [4] [%] | IC50 [5] [µM] | IC50 [6] [µM] | IC50 [7] [µM] | IC50 [8] [µM] | IC50 [9] [µM] | IC50 [3] [µM] | IC50 [10] [µM]
1 | Cc1cc(COc2ccc(S(=O)(=O)CC(C=C3CCN(CC(C)C)CC3)N(O)C=O)cc2)c2ccccc2n1 (stereo not drawn) [Example I-24, N-Hydroxy-N-{1-(1-isobutylpiperidin-4-ylidenemethyl)-2-[4-(2-methylquinolin-4-ylmethoxy)benzenesulfonyl]ethyl}formamide] | 40 | 4 | 0.006 | 56.0 | 10 | – | – | – | – | – | –
2 | Cc1cc(COc2ccc(S(=O)(=O)CC(CC3CCC(=O)CC3)N(O)C=O)cc2)c2ccccc2n1 (stereo not drawn) [Example I-2, N-Hydroxy-N-[2-{4-(2-methylquinolin-4-ylmethoxy)benzenesulfonyl}-1-(4-oxocyclohexylmethyl)ethyl]formamide] | 6 | 0.4 | – | 42.3 | 1.5 | 50 | 60 | 53 | – | – | –
3 | Cc1cc(COc2ccc(S(=O)(=O)CC(N(O)C=O)C3(C)CCC(O)CC3)cc2)c2ccccc2n1 (stereo not drawn) [Example I-137] | 50 | 0.9 | – | – | 3.2 | > 100 | > 100 | > 100 | 23 | 0.024 | > 100
4 | CCC(CC)C(=O)N1CCC(=CC(CS(=O)(=O)c2ccc(OCc3cc(C)nc4ccccc34)cc2)N(O)C=O)CC1 (stereo not drawn) [Example I-42] | 20 | 2.3 | – | – | 2.2 | 52 | 70 | 38 | 61 | 0.0029 | 18
